In US8530465B2, “1, 2-disubstituted amido-anthraquinone derivatives, preparation method and application thereof” (National Defense Medical Center, priority 2010, dated 2013):

What was measured:
Type in all cases: cell-based, human
SF-268 = test: NCI drug screen, SF-268; conditions: SF-268 (CNS Cancer); 1.00E−5 Molar
Description: (§1) In brief, cellular protein levels were determined after 48 hours of drug exposure by sulforhodamine B colorimetry. Through the use of a time 0 cell control, the cell growth can be determined for each cell line thus allowing calculations of the 50% growth inhibitory concentration (GI50), the total growth inhibition (TGI), and the 50% lethal concentration (LC50). Comparison to plates not exposed to drug permits determination of concentration and times of exposure conferring 50% net growth inhibition (GI50), TGI, and 50% cell kill (LC50).
(§2) The screening system in United State National Cancer Institute (NCI) is consisted of 60 kinds of different human cancer cells, which can be used to assay the growth-inhibiting ability or cell toxicity of a compound against various cancer and tumor at a certain concentration.

SF-295 = test: NCI drug screen, SF-295; conditions: SF-295 (CNS Cancer); 1.00E−5 Molar
Description: as §1, §2

SK-MEL-2 = test: NCI drug screen, SK-MEL-2; conditions: SK-MEL-2 (Melanoma); 1.00E−5 Molar
Description: as §1, §2

UACC-257 = test: NCI drug screen, UACC-257; conditions: UACC-257 (Melanoma); 1.00E−5 Molar
Description: as §1, §2

HS 578-T = test: NCI drug screen, HS 578-T; conditions: HS 578-T (Breast Cancer); 1.00E−5 Molar
Description: as §1, §2

HCT-116 = test: NCI drug screen, HCT-116; conditions: HCT-116 (Colon Cancer); 1.00E−5 Molar
Description: as §1, §2

RPMI-8226 = test: NCI drug screen, RPMI-8226; conditions: RPMI-8226 (Leukemia); 1.00E−5 Molar
Description: as §1, §2

EKVX = test: NCI drug screen, EKVX; conditions: EKVX (Non-Small Cell Lung Cancer); 1.00E−5 Molar
Description: as §1, §2

H1299 = test: MTT assay, PhTERT-SEAP (H1299); conditions: H1299; SEAP and MTT analysis
In short: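 Cultured cells received MTT for 4 h at 37 °C, then lysis buffer overnight at 37 °C. Optical density was read at 550 nm.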

Compound: Cc1ccc(C(=O)Nc2ccc3c(c2NC(=O)c2ccc(C)cc2)C(=O)c2ccccc2C3=O)cc1 [CC-04, 1,2-bis-(4-methylbenzamido)-anthraquinone]
- Growth Percent (SF-268): 98.91%
- Growth Percent (SF-295): 110.81%
- Growth Percent (SK-MEL-2): 100.65%
- Growth Percent (UACC-257): 98.46%
- Growth Percent (HS 578-T): 105.96%
- Growth Percent (HCT-116): 78.55%
- Growth Percent (RPMI-8226): 101.77%

Compound: Cc1ccc(C(=O)Nc2c(NC(=O)CCl)ccc3c2C(=O)c2ccccc2C3=O)cc1 [CC-12, 1-(4-methylbenzamido)-2-(chloroacetamido)-anthraquinone]
- Growth Percent (SF-268): 14.63%
- Growth Percent (SF-295): 79.70%
- Growth Percent (SK-MEL-2): 52.00%
- Growth Percent (EKVX): 88.22%
- Growth Percent (HCT-116): −54.27%

Compound: O=C(CCl)Nc1ccc2c(c1NC(=O)Cc1ccccc1)C(=O)c1ccccc1C2=O [CC-23, 1-[2-(phenyl)acetylamino]-2-(chloroacetamido)-anthraquinone]
- Growth Percent (SF-268): 80.14%
- Growth Percent (SF-295): 98.48%
- Growth Percent (SK-MEL-2): −6.49%
- Growth Percent (EKVX): 102.08%
- Growth Percent (HS 578-T): 66.65%
- Growth Percent (HCT-116): 67.55%

Compound: Cc1ccc(C(=O)Nc2c(NC(=O)CN3CCCC3)ccc3c2C(=O)c2ccccc2C3=O)cc1 [CC-38, 1-(4-methylbenzamido)-2-[2-(tetrahydro-1H-1-pyrrolyl)acetylamino]-anthra quinone]
- Growth Percent (SF-268): 86.17%
- Growth Percent (SF-295): 68.97%
- Growth Percent (SK-MEL-2): 102.17%
- Growth Percent (EKVX): 65.93%
- Growth Percent (UACC-257): 92.83%
- Growth Percent (HS 578-T): 69.39%
- Growth Percent (HCT-116): 58.46%

Compound: Cc1ccc(C(=O)Nc2c(NC(=O)CN3CCN(C)CC3)ccc3c2C(=O)c2ccccc2C3=O)cc1 [CC-43, 1-(4-methylbenzamido)-2-[2-(4-methylpiperazino)acetylamino]-anthraquinone]
- Growth Percent (SF-268): 59.11%
- Growth Percent (SF-295): 89.86%
- Growth Percent (SK-MEL-2): 123.64%
- Growth Percent (EKVX): 78.07%
- inhibitory activity among compounds CC-35 to CC-50 (H1299): higher inhibitory activity
- Growth Percent (UACC-257): −50.95%
- Growth Percent (HS 578-T): 87.29%
- Growth Percent (HCT-116): 8.37%
